Test results from patent publication US7138361B2, “Herbicidal heterocycles” (E. I. du Pont de Nemours and Company, priority 2000, dated 2006).

How the values were obtained:
Format in all cases: in vivo
[1] = system: Italian ryegrass (Lolium multiflorum); assay: Test C postemergence
Method in brief: (§1)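 Formulation: non-phytotoxic solvent mix incl. surfactant. Pre: applied right after planting. Post: 1–4-leaf seedlings. Read: visual 0–100, day 12–14, greenhouse.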

[2] = system: blackgrass (Alopecurus myosuroides); assay: Test C postemergence
Method in brief: as §1

[3] = system: canary grass (Phalaris minor); assay: Test C postemergence
Method in brief: as §1

[4] = system: downy brome (Bromus tectorum); assay: Test C postemergence
Method in brief: as §1

[5] = system: green foxtail (Setaria viridis); assay: Test C postemergence
Method in brief: as §1

[6] = system: wheat (Triticum aestivum); assay: Test C postemergence
Method in brief: as §1

[7] = system: wild oat (Avena fatua); assay: Test C postemergence
Method in brief: as §1

[8] = system: windgrass (Apera spica-venti); assay: Test C postemergence
Method in brief: as §1

[9] = system: winter barley (Hordeum vulgare); assay: Test C postemergence
Method in brief: as §1

[10] = system: barnyardgrass (Echinochloa crus-galli); assay: Test B flooded paddy test; conditions: Rate 1000 g/ha, scale of 0 to 100 where 0 is no effect and 100 is complete control, visually evaluated after 13 to 15 days
Method in brief: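 Visual injury score on a 0–100 scale, where 100 means complete control, assigned against untreated controls 13 to 15 days after plants at the 2-leaf stage were treated under flooded paddy conditions.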

[11] = Rate 250 g/ha, scale 0 to 100 (0 no effect, 100 complete control)
[12] = Rate 500 g/ha, scale 0 to 100 (0 no effect, 100 complete control)
[13] = Rate 125 g/ha, scale 0 to 100, 0 no effect, 100 complete control

Compound: COc1cc(N2CCC(n3ccc(C(C)(C)C)n3)C2=O)ccc1Cl (stereo not shown) [Compound 117]
- Plant response rating, Ryegrass ([1]; Rate 62 g/ha, scale 0 to 100): 10
- Plant response rating, Ryegrass [1, 11]: 30
- Plant response rating, Ryegrass [1, 12]: 60
- Plant response rating, Blackgrass ([2]; Rate 62 g/ha, scale 0 to 100): 0
- Plant response rating, Blackgrass [2, 13]: 0
- Plant response rating, Blackgrass [2, 11]: 20
- Plant response rating, Blackgrass [2, 12]: 40
- Plant response rating, Canarygrass ([3]; Rate 62 g/ha, scale 0 to 100): 0
- Plant response rating, Canarygrass [3, 13]: 0
- Plant response rating, Canarygrass [3, 11]: 20
- Plant response rating, Canarygrass [3, 12]: 20
- Plant response rating, Downy Brome ([4]; Rate 62 g/ha, scale 0 to 100): 20
- Plant response rating, Downy Brome [4, 13]: 40
- Plant response rating, Downy Brome [4, 12]: 40
- Plant response rating, Foxtail, Green ([5]; Rate 62 g/ha, scale 0 to 100): 10
- Plant response rating, Foxtail, Green [5, 11]: 30
- Plant response rating, Foxtail, Green [5, 12]: 50
- Plant response rating, Wheat ([6]; Rate 62 g/ha, scale 0 to 100): 10
- Plant response rating, Wheat [6, 11]: 10
- Plant response rating, Wheat [6, 12]: 20
- Plant response rating, Wild Oat ([7]; Rate 62 g/ha, scale 0 to 100): 30
- Plant response rating, Wild Oat [7, 11]: 30
- Plant response rating, Wild Oat [7, 12]: 30
- Plant response rating, Windgrass ([8]; Rate 62 g/ha, scale 0 to 100): 20
- Plant response rating, Windgrass [8, 11]: 40
- Plant response rating, Windgrass [8, 12]: 60
- Plant response rating, Barley, Winter ([9]; Rate 62 g/ha, scale 0 to 100): 0
- Plant response rating, Barley, Winter [9, 13]: 0
- Plant response rating, Barley, Winter [9, 12]: 20

Compound: Cc1cc(C)nc(N2CCC(n3ccc(C(C)(C)C)n3)C2=O)c1 (stereo not shown) [Compound 138]
- Plant response rating, Barnyardgrass [10]: 100

Compound: CC(C)(C)c1ccn(C2CCN(c3cccc(C(F)(F)F)c3)C2=S)n1 (stereo not shown) [Compound 22]
- Plant response rating, Barnyardgrass [10]: 100
